Measurements: patent US12544374B2, “AZA-quinoline compounds and uses thereof” (Novartis AG, priority 2019, dated 2026)

Experiments:
[1] = target: wild type PRC2 (wtPRC2) complex (Homo sapiens (Human), UniProt Q15910); experiment: EZH2 LC-MS assay (LC-Qualified); assay type: biochemical; conditions: (a) LC-Qualified assay
Procedure: Representative compounds of the invention were serially and separately diluted 3-fold in DMSO to obtain twelve concentrations. […] Solutions (6 μL) of 80 nM wild type PRC2 (wtPRC2) complex and 60 μM SAM in reaction buffer (20 mM Tris, pH 8.0, 0.1% BSA, 0.01% Triton, 0.5 mM DTT) were added to the wells that were then incubated with the test compound for 20 min. A 6 μL solution of 3 μM of the substrate peptide H3K27me1 (histone H3[21-44]-K27me1-biotin) and 6 μM regulatory peptide H3K27me3 (histone H3[21-44]-K27me3) in reaction buffer was added to initiate each reaction. […] The data were fit to a dose response equation using the program Helios to get the IC50 values of the test compound.

EZH2 = EZH2 (Homo sapiens (Human), UniProt Q15910); experiment: ELISA (H3K27 methylation) assay in G401 cell; assay type: cell-based; conditions: (b) ELISA Qualified assay, 48 h
Sequence of EZH2 (Q15910 whole entry): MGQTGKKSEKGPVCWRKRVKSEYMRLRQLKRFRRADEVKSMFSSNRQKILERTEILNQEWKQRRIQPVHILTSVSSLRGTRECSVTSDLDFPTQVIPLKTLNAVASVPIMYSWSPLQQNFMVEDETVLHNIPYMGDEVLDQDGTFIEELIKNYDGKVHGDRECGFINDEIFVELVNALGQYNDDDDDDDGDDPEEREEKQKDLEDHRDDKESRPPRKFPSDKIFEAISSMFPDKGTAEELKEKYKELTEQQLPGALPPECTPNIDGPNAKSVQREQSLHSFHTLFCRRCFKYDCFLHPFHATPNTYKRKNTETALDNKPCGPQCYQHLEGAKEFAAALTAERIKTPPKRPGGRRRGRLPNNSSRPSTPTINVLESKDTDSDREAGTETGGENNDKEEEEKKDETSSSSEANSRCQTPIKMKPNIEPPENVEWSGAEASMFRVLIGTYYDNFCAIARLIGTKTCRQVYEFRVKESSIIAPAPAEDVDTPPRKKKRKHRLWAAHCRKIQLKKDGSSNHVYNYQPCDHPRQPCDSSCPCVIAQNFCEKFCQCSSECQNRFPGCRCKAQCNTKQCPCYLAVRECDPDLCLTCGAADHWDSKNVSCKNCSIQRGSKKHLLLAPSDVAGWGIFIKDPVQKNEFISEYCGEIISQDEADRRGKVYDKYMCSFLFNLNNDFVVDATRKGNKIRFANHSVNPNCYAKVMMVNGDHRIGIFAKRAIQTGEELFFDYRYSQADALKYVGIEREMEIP
Sequence of EZH2 (Q15022 whole entry partner): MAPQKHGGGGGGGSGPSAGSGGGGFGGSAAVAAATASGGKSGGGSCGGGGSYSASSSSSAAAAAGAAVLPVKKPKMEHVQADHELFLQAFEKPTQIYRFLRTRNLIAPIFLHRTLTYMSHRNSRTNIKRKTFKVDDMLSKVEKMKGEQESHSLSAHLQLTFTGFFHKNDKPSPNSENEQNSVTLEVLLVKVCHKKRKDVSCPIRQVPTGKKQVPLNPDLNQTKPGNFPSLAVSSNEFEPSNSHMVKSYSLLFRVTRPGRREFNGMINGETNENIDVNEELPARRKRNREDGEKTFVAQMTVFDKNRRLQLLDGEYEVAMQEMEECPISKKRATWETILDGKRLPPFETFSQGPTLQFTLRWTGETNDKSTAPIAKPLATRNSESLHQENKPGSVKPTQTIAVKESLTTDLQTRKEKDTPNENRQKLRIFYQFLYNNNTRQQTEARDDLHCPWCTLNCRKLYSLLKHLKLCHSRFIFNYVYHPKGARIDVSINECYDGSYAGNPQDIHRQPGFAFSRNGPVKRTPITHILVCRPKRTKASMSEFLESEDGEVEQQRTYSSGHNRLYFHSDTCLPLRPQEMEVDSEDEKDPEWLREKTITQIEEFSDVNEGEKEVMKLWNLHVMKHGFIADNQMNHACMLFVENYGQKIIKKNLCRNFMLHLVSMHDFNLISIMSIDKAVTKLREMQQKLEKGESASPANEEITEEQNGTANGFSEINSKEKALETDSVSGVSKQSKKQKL
Sequence of EZH2 (O75530 whole entry partner): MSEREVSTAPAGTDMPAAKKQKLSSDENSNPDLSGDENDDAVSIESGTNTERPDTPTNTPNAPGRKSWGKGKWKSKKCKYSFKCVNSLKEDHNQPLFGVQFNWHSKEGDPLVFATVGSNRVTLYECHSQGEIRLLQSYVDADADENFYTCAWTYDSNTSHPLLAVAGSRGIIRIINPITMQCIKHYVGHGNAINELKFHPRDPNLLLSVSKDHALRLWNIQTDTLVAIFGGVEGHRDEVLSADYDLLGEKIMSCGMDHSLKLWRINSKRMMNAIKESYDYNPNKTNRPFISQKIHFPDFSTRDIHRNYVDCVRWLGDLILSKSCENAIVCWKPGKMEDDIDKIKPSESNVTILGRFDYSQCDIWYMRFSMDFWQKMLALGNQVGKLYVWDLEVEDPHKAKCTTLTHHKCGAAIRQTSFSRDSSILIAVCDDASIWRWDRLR
Sequence of EZH2 (Q09028 whole entry partner): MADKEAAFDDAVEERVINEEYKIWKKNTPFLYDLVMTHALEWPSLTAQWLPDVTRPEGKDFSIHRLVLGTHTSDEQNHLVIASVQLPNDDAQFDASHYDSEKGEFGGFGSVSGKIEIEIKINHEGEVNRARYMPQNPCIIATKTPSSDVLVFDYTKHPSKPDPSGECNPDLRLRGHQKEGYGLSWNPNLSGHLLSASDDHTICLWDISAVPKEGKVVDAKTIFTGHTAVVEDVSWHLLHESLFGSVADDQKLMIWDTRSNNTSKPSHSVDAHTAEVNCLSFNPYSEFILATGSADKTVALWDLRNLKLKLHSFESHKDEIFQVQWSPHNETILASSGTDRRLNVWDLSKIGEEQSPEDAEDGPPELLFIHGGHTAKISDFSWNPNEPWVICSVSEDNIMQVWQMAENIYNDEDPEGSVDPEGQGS
Procedure: Representative compounds of the invention were serially and separately diluted 3-fold in DO to obtain a total of eight or twelve concentrations. Then the compounds were added to G401 cell cultured in 384-well plate at 1:500 dilution to obtain the highest concentration of 20 μM. The cells were further cultured for 48 h before ELISA procedure.
ELISA protocol: Cell lysates were transferred to the wells of a 384-well plate and the final volume was adjusted to 50 μL per well with PBS. The plate was sealed, centrifuged at 2,000 rpm for 2 min and incubated at 4° C. for about 16 h. The plate was washed with TBST buffer (1×TBS (10×TBS: 24.2 g Tris (Sigma, T6066), 80 g NaCl (Sigma, S3014) to 1 L of water and adjust pH to 7.6 with HCl) with 0.1% Tween-20). Blocking buffer (TBST, 5% BSA; 50 μL per well) was added and the plate was incubated for 1 h at rt. The blocking buffer was removed and primary antibody was added (30 μL per well). […] The primary antibody was incubated in the plate at rt for 1 h. The wells were washed with TBST and incubated with secondary antibody for 1 h at rt.
After 1 h of incubation at rt, the wells were washed with TBST. […] The signal was read using a PerkinElmer Envision Reader. The H3K27 methylation readouts were normalized using H3 signal and then percentage inhibition was calculated against the samples treated with DO. The data were fit to a dose response curve using the program Helios to get the IC50 values of the test compound.

Sequence of wild type PRC2 (wtPRC2) complex (Q15910 whole entry): as the sequence (Q15910 whole entry) above
Sequence of wild type PRC2 (wtPRC2) complex (Q15022 whole entry partner): as the sequence (Q15022 whole entry partner) above
Sequence of wild type PRC2 (wtPRC2) complex (O75530 whole entry partner): as the sequence (O75530 whole entry partner) above
Sequence of wild type PRC2 (wtPRC2) complex (Q09028 whole entry partner): as the sequence (Q09028 whole entry partner) above
Sequence of wild type PRC2 (wtPRC2) complex (Q6ZN18 whole entry partner): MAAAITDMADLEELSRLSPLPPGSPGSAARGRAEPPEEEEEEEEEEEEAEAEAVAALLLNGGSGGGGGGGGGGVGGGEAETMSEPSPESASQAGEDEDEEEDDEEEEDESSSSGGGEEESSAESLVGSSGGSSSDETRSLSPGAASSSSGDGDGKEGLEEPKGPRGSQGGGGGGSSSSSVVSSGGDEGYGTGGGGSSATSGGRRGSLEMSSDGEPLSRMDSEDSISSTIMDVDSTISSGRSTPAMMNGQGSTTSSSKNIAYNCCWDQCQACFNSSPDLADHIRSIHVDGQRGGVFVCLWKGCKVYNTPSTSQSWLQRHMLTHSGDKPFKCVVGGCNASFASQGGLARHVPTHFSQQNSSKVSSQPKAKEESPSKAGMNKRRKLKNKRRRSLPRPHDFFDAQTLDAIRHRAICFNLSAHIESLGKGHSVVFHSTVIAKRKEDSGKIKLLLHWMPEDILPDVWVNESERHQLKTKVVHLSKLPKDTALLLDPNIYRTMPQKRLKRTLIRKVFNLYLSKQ

Row | Compound | IC50 [1] | IC50 (EZH2)
1 | COc1nccc2ccc(N[C@H]3CC[C@H](CNc4ncc(C#N)cn4)CC3)nc12 [Compound C4, 2-((((1,4-trans)-4-((8-methoxy-1,7-naphthyridin-2-yl)amino)cyclohexyl)methyl)amino)pyrimidine-5-carbonitrile] | 0.046 µM | 0.031 µM
2 | COc1nccc2ccc(N[C@H]3CC[C@H](CNc4ncc(NC(=O)C5CNC5)cn4)CC3)nc12 [Compound C2, N-(2-((((1,4-trans)-4-((8-methoxy-1,7-naphthyridin-2-yl)amino)cyclohexyl)methyl)amino)pyrimidin-5-yl)azetidine-3-carboxamide] | 0.087 µM | 0.783 µM
3 | O=C(CO)Nc1cnc(NC[C@H]2CC[C@H](Nc3ccc4ccnc(Cl)c4n3)CC2)nc1 [Compound C19, N-(2-((((1,4-trans)-4-((8-chloro-1,7-naphthyridin-2-yl)amino)cyclohexyl)methyl)amino)pyrimidin-5-yl)-2-hydroxyacetamide] |  | 0.069 µM
4 | O=C(NC1COC1)c1cnc(NC[C@H]2CC[C@H](Nc3ccc4ccnc(Cl)c4n3)CC2)nc1 [Compound C25, 2-((((1,4-trans)-4-((8-chloro-1,7-naphthyridin-2-yl)amino)cyclohexyl)methyl)amino)-N-(oxetan-3-yl)pyrimidine-5-carboxamide] | 0.023 µM | 0.285 µM
5 | COc1nccc2ccc(N[C@H]3CC[C@H](CNc4ncc(C(=O)N5CCN(C)CC5)cn4)CC3)nc12 [Compound C11, (2-((((1,4-trans)-4-((8-methoxy-1,7-naphthyridin-2-yl)amino)cyclohexyl)methyl)amino)pyrimidin-5-yl)(4-methylpiperazin-1-yl)methanone] | 0.12 µM | 0.029 µM
6 | OCCc1cnc(NC[C@H]2CC[C@H](Nc3ccc4ccnc(Cl)c4n3)CC2)nc1 [Compound C46, 2-(2-((((1,4-trans)-4-((8-chloro-1,7-naphthyridin-2-yl)amino)cyclohexyl)methyl)amino)pyrimidin-5-yl)ethan-1-ol] | 0.012 µM | 0.013 µM
7 | CS(=O)(=O)N1CCN(Cc2cnc(NC[C@H]3CC[C@H](Nc4ccc5ccnc(Cl)c5n4)CC3)nc2)CC1 [Compound C26, 8-chloro-N-((1,4-trans)-4-(((5-((4-(methylsulfonyl)piperazin-1-yl)methyl)pyrimidin-2-yl)amino)methyl)cyclohexyl)-1,7-naphthyridin-2-amine] | 0.012 µM | 0.006 µM
8 | O=C(NCc1cnc(NC[C@H]2CC[C@H](Nc3ccc4ccnc(Cl)c4n3)CC2)nc1)C1COC1 [Compound C59, N-((2-((((1,4-trans)-4-((8-chloro-1,7-naphthyridin-2-yl)amino)cyclohexyl)methyl)amino)pyrimidin-5-yl)methyl)oxetane-3-carboxamide] | 0.045 µM | 0.033 µM
9 | 2-methoxyethyl (2-((((1,4-trans)-4-((8-chloro-1,7-naphthyridin-2-yl)amino)cyclohexyl)methyl)amino)pyrimidin-5-yl)carbamate [Compound C16] | 0.015 µM | 0.027 µM
10 | O=C(c1cnc(NC[C@H]2CC[C@H](Nc3ccc4ccnc(Cl)c4n3)CC2)nc1)N1CCNCC1 [Compound C24, (2-((((1,4-trans)-4-((8-chloro-1,7-naphthyridin-2-yl)amino)cyclohexyl)methyl)amino)pyrimidin-5-yl)(piperazin-1-yl)methanone] | 0.112 µM | 0.296 µM
11 | COC1CC(NCc2cnc(NC[C@H]3CC[C@H](Nc4ccc5ccnc(Cl)c5n4)CC3)nc2)C1 (stereo partly drawn) [Compound C32, 8-chloro-N-((1,4-trans)-4-(((5-(((3-methoxycyclobutyl)amino)methyl)pyrimidin-2-yl)amino)methyl)cyclohexyl)-1,7-naphthyridin-2-amine] | 0.079 µM | 0.498 µM
12 | Clc1nccc2ccc(N[C@H]3CC[C@H](CNc4ncc(CNCC5COC5)cn4)CC3)nc12 [Compound C31, 8-chloro-N-((1,4-trans)-4-(((5-(((oxetan-3-ylmethyl)amino)methyl)pyrimidin-2-yl)amino)methyl)cyclohexyl)-1,7-naphthyridin-2-amine] | 0.026 µM | 0.06 µM
13 | CN(C)C1CCN(C(=O)Cc2cnc(NC[C@H]3CC[C@H](Nc4ccc5ccnc(Cl)c5n4)CC3)nc2)C1 (stereo partly drawn) [Compound C39, 2-(2-((((1,4-trans)-4-((8-chloro-1,7-naphthyridin-2-yl)amino)cyclohexyl)methyl)amino)pyrimidin-5-yl)-1-(3-(dimethylamino)pyrrolidin-1-yl)ethan-1-one] | 0.081 µM | 0.02 µM

Further compounds by falling IC50 (EZH2), results first:

Row | IC50 [1] | IC50 (EZH2) | Compound
14 | 0.204 µM | 0.16 µM | Nc1cnc(NC[C@H]2CC[C@H](Nc3ccc4ccnc(OC(F)F)c4n3)CC2)nc1 [Compound C66, N^2-(((1,4-trans)-4-((8-(difluoromethoxy)-1,7-naphthyridin-2-yl)amino)cyclohexyl)methyl)pyrimidine-2,5-diamine]
15 | 0.059 µM | 0.065 µM | COC(=O)N(C)c1cnc(NC[C@H]2CC[C@H](Nc3ccc4ccnc(Cl)c4n3)CC2)nc1 [Compound C65, Methyl (2-((((1,4-trans)-4-((8-chloro-1,7-naphthyridin-2-yl)amino)cyclohexyl)methyl)amino)pyrimidin-5-yl)(methyl)carbamate]
16 | 0.063 µM | 0.062 µM | COc1nccc2ccc(N[C@H]3CC[C@H](CNc4ncc(C(N)=O)cn4)CC3)nc12 [Compound C5, 2-((((1,4-trans)-4-((8-methoxy-1,7-naphthyridin-2-yl)amino)cyclohexyl)methyl)amino)pyrimidine-5-carboxamide]
17 | 0.105 µM | 0.061 µM | COc1nccc2ccc(N[C@H]3CC[C@H](CNc4ncc(C(=O)NCC(C)O)cn4)CC3)nc12 (stereo partly drawn) [Compound C9, N-(2-hydroxypropyl)-2-((((1,4-trans)-4-((8-methoxy-1,7-naphthyridin-2-yl)amino)cyclohexyl)methyl)amino)pyrimidine-5-carboxamide]
18 | 0.053 µM | 0.054 µM | O=C1OCCN1c1cnc(NC[C@H]2CC[C@H](Nc3ccc4ccnc(Cl)c4n3)CC2)nc1 [Compound C64, 3-(2-((((1,4-trans)-4-((8-chloro-1,7-naphthyridin-2-yl)amino)cyclohexyl)methyl)amino)pyrimidin-5-yl)oxazolidin-2-one]
19 | 0.028 µM | 0.039 µM | O=C(Nc1cnc(NC[C@H]2CC[C@H](Nc3ccc4ccnc(Cl)c4n3)CC2)nc1)OCC1COC1 [Compound C18, Oxetan-3-ylmethyl (2-((((1,4-trans)-4-((8-chloro-1,7-naphthyridin-2-yl)amino)cyclohexyl)methyl)amino)pyrimidin-5-yl)carbamate]
20 | 0.149 µM | 0.031 µM | CNc1nccc2ccc(N[C@H]3CC[C@H](CNc4ncc(N)cn4)CC3)nc12 [Compound C62, N^2-((1,4-trans)-4-(((5-aminopyrimidin-2-yl)amino)methyl)cyclohexyl)-N^8-methyl-1,7-naphthyridine-2,8-diamine]
21 | 0.023 µM | 0.027 µM | CCN(CCC#N)C(=O)Cc1cnc(NC[C@H]2CC[C@H](Nc3ccc4ccnc(Cl)c4n3)CC2)nc1 [Compound C50, 2-(2-((((1,4-trans)-4-((8-chloro-1,7-naphthyridin-2-yl)amino)cyclohexyl)methyl)amino)pyrimidin-5-yl)-N-(2-cyanoethyl)-N-ethylacetamide]
22 |  | 0.024 µM | Clc1nccc2ccc(NC3CCC(CNc4ncc(COC5COC5)cn4)CC3)nc12 (stereo not drawn) [Compound C35, 8-chloro-N-((1,4-trans)-4-(((5-((oxetan-3-yloxy)methyl)pyrimidin-2-yl)amino)methyl)cyclohexyl)-1,7-naphthyridin-2-amine]
23 | 0.022 µM | 0.021 µM | CNc1nccc2ccc(N[C@H]3CC[C@H](CNc4ncc(C#N)cn4)CC3)nc12 [Compound C60, 2-((((1,4-trans)-4-((8-(methylamino)-1,7-naphthyridin-2-yl)amino)cyclohexyl)methyl)amino)pyrimidine-5-carbonitrile]
24 | 0.017 µM | 0.007 µM | O=S1(=O)CCN(Cc2cnc(NC[C@H]3CC[C@H](Nc4ccc5ccnc(Cl)c5n4)CC3)nc2)CC1 [Compound C30, 4-((2-((((1,4-trans)-4-((8-chloro-1,7-naphthyridin-2-yl)amino)cyclohexyl)methyl)amino)pyrimidin-5-yl)methyl)thiomorpholine 1,1-dioxide]
25 | 0.054 µM | 0.002 µM | CC(C(=O)N(C)C1COC1)c1cnc(NC[C@H]2CC[C@H](Nc3ccc4ccnc(Cl)c4n3)CC2)nc1 (mixture of isomers) [Compound C55, 2-(2-((((1,4-trans)-4-((8-chloro-1,7-naphthyridin-2-yl)amino)cyclohexyl)methyl)amino)pyrimidin-5-yl)-N-methyl-N-(oxetan-3-yl)propanamide]
